Key:
Assay in all cases: microbe, parasite or virus in culture
[1] = test system: E. coli ATCC 25922; details: n = 2
Description: A positive control of a row of just the bacteria and a negative control of only the medium were included for every plate tested.
The compounds along with standard antibiotics were serially diluted 2-fold across the 96-well plates. […] A sample of each culture was then diluted 40-fold in fresh MH broth (in presence and absence of Tween) and incubated at 37°C for 2 to 3 h.
For experiments in the presence of surfactant, 2% beractant (25 mg/ml) was added to the mid-log-phase cultures and mixed gently and added to all the 96-well plates. For experiments in the presence of serum, a mixture of 50% of human serum along with 50% MHB was prepared and used throughout the experiment.

[2] = test system: A. baumannii ATCC 19606; details: Acinetobacter baumannii, n = 2
In short: (§1)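 First, a sample of each culture was diluted 40-fold in fresh Mueller-Hinton broth containing or lacking Tween. Next, this was incubated 2 to 3 h at 37°C. Compounds, alongside comparator antibiotics, were tested as 2-fold serial dilutions on 96-well plates.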

[3] = test system: K. pneumoniae ATCC 13883; details: Klebsiella pneumoniae, n = 2
In short: as §1

[4] = test system: P. aeruginosa ATCC 10145; details: Pseudomonas aeruginosa, n = 2
In short: as §1

Measured: MIC

Cc1onc(-c2ccccc2)c1C(=O)N[C@@H]1C(=O)N2[C@@H]1SC(C)(C)[C@@H]2C(=O)O [Oxacillin, oxacillin]
> 64 mg/L: [1]; Corning NBS plate, MHB +0.002% T80, no further additive | [1]; Corning NBS plate, MHB −T80, no additive | [1]; Corning PS plate, MHB +0.002% T80, no further additive | [1]; Corning PS plate, MHB −T80, no additive | [1]; Corning TC plate, MHB +0.002% T80, no further additive | [1]; Corning TC plate, MHB −T80, no additive | [1]; Escherichia coli, ATCC25922, 24 h, Corning NBS, MH + 2% LHB, 2% LS | [1]; Escherichia coli, ATCC25922, 24 h, Corning NBS, MH + 2% LHB, 50% HS | [1]; Escherichia coli, ATCC25922, 24 h, Corning NBS, MH + 2% LHB, no additive | [1]; Escherichia coli, ATCC25922, 24 h, Corning NBS, MH + T80, 2% LS | [1]; Escherichia coli, ATCC25922, 24 h, Corning NBS, MH + T80, 50% HS | [1]; Escherichia coli, ATCC25922, 24 h, Corning PS, MH + 2% LHB, 2% LS | [1]; Escherichia coli, ATCC25922, 24 h, Corning PS, MH + 2% LHB, 50% HS | [1]; Escherichia coli, ATCC25922, 24 h, Corning PS, MH + 2% LHB, no additive | [1]; Escherichia coli, ATCC25922, 24 h, Corning PS, MH + T80, 2% LS | [1]; Escherichia coli, ATCC25922, 24 h, Corning PS, MH + T80, 50% HS | [1]; Escherichia coli, ATCC25922, 24 h, Corning TC, MH + 2% LHB, 2% LS | [1]; Escherichia coli, ATCC25922, 24 h, Corning TC, MH + 2% LHB, 50% HS | [1]; Escherichia coli, ATCC25922, 24 h, Corning TC, MH + 2% LHB, no additive | [1]; Escherichia coli, ATCC25922, 24 h, Corning TC, MH + T80, 2% LS | [1]; Escherichia coli, ATCC25922, 24 h, Corning TC, MH + T80, 50% HS | [1]; Escherichia coli, ATCC25922, 24 h, Trek PS, MH + 2% LHB, 2% LS | [1]; Escherichia coli, ATCC25922, 24 h, Trek PS, MH + 2% LHB, 50% HS | [1]; Escherichia coli, ATCC25922, 24 h, Trek PS, MH + 2% LHB, no additive | [1]; Escherichia coli, ATCC25922, 24 h, Trek PS, MH + T80, 2% LS | [1]; Escherichia coli, ATCC25922, 24 h, Trek PS, MH + T80, 50% HS | [1]; Escherichia coli, ATCC25922, Corning NBS plate, MHB +0.002% T80, no further additive | [1]; Escherichia coli, ATCC25922, Corning NBS plate, MHB −T80, no additive | [1]; Escherichia coli, ATCC25922, Corning NBS, MH, 2% LS | [1]; Escherichia coli, ATCC25922, Corning NBS, MH, 50% HS | [1]; Escherichia coli, ATCC25922, Corning PS plate, MHB +0.002% T80, no further additive | [1]; Escherichia coli, ATCC25922, Corning PS plate, MHB −T80, no additive | [1]; Escherichia coli, ATCC25922, Corning PS, MH, 2% LS | [1]; Escherichia coli, ATCC25922, Corning PS, MH, 50% HS | [1]; Escherichia coli, ATCC25922, Corning TC plate, MHB +0.002% T80, no further additive | [1]; Escherichia coli, ATCC25922, Corning TC plate, MHB −T80, no additive | [1]; Escherichia coli, ATCC25922, Corning TC, MH, 2% LS | [1]; Escherichia coli, ATCC25922, Corning TC, MH, 50% HS | [1]; Escherichia coli, ATCC25922, Nunc PS plate, MHB +0.002% T80 | [1]; Escherichia coli, ATCC25922, Nunc PS plate, MHB −T80 | [1]; Escherichia coli, ATCC25922, Nunc U TC plate, MHB +0.002% T80 | [1]; Escherichia coli, ATCC25922, Nunc U TC plate, MHB −T80 | [1]; Escherichia coli, ATCC25922, Nunc flat TC plate, MHB +0.002% T80 | [1]; Escherichia coli, ATCC25922, Nunc flat TC plate, MHB −T80 | [1]; Escherichia coli, ATCC25922, Trek PS plate, MHB +0.002% T80, no further additive | [1]; Escherichia coli, ATCC25922, Trek PS plate, MHB −T80, no additive | [1]; Escherichia coli, ATCC25922, Trek PS, MH, 2% LS | [1]; Escherichia coli, ATCC25922, Trek PS, MH, 50% HS | [2]; ATCC19606, Corning NBS, MHB +T80 | [2]; ATCC19606, Corning NBS, MHB -T80 | [2]; ATCC19606, Corning PS, MHB +T80 | [2]; ATCC19606, Corning PS, MHB -T80 | [2]; ATCC19606, Corning TC, MHB +T80 | [2]; ATCC19606, Corning TC, MHB -T80 | [3]; ATCC13883, Corning NBS, MHB +T80 | [3]; ATCC13883, Corning NBS, MHB -T80 | [3]; ATCC13883, Corning PS, MHB +T80 | [3]; ATCC13883, Corning PS, MHB -T80 | [3]; ATCC13883, Corning TC, MHB +T80 | [3]; ATCC13883, Corning TC, MHB -T80 | [4]; ATCC10145, Corning NBS, MHB +T80 | [4]; ATCC10145, Corning NBS, MHB -T80 | [4]; ATCC10145, Corning PS, MHB +T80 | [4]; ATCC10145, Corning PS, MHB -T80 | [4]; ATCC10145, Corning TC, MHB +T80 | [4]; ATCC10145, Corning TC, MHB -T80
